# What was measured:
# MC progenitors = details: LTB4: ref 38, 40, 42; PGE2: no ref at this clause; cited from earlier work
# asthmatic subjects = details: cited from earlier work
# neurokinin 1 receptor = details: 100 nM aprepitant, SP 0.03-10, immature mast cells, n=1
# Experimental: Chemotaxis assays were carried out using 8 μm pore ChemoTX™ assay plates (Neuroprobe, Gaithersburg, USA). Cells were first loaded with 5 μM Calcein-AM for 30 mins, 37°C/5% CO2 in cell culture medium prior to being washed and resuspended at a concentration of 1 x 10^6.ml^-1. Where appropriate cells were pre-incubated with Compound A or vehicle control. Chemoattractants were prepared in cell culture medium and placed in the lower chamber. The plate was constructed and 50 μl cell suspension applied to the upper part of the membrane of each well. No chemoattractant and equal chemoattractant on both sides of the chamber were used to control for random cell movement. The plate was incubated for 6 hours 37°C/5% CO2 before analysis of migrated cells, as follows. Cells were removed from above the membrane by pipetting, the membrane was then washed with PBS buffer containing 2mM EDTA and wiped using a rubber filter wiper (Neuroprobe). PBS/EDTA was applied to the upper side of the membrane and the plate incubated for 30 mins at 4°C before again being wiped. The plate was then centrifuged at 500 x g for 5 mins to capture cells attached to the underside of the membrane. […] Total migrated cells were counted as Live/Dead™-/Calcein-AM+/CD117+ cells or Live/Dead™-/Calcein-AM+ cells in each sample. […]
# MRGPRX2 [1] = biological target: T1, MRGPRX2 (Homo sapiens, UniProt Q96LB1); details: 15 min; 1 µM (PACAP1-38, PACAP1-27, PAMP9-20, VIP) or 10 µM (CGRP); concentration response 0.01-100 µM, n=1 of a mix of 2 donors
# Experimental: Degranulation was assessed by labelling of externalised CD63 (clone H5C6) as previously established[3] in response to substance P (Genscript, Oxford, UK), IgE/anti-IgE, anti-FcεRIα (clone AER37, Biolegend, London, UK) or C3a (CompTech, Tyler, USA). In all cases, cells were washed in PBS prior to incubation with live/dead™ reagent before analysis. […] Fc blocking reagent and antibodies were added, diluted in 1x permeabilisation buffer (BD Bioscience, Winnersh, UK), cells were washed and incubated with goat anti-mouse polyclonal antibodies labelled with PE or APC (Biolegend, London, UK). All cells were analysed on FACSymphony A5 or LSRFostessa instruments, and FlowJo software (BD Bioscience, Winnersh, UK). CD63 externalisation was used as a surrogate for MC degranulation according to established methodology.[52]^,[53]^,[54]
# Putative MRGPRX2 ligand activation of MRGPRX2 positive cells.
# (A) Gating showing degranulation, as measured by CD63 externalisation (x-axis), vs MRGPRX2 expression (y-
# axis) after 15 mins of treatment with labelled agonists at 1µM (PACAP1-38, PACAP1-27, PAMP9-20, VIP) or
# Percentage of cells in each quadrant is shown.
# (B) Degranulation of mast cells in response to agonists (0.01-100 µM) after 15 minutes of application, as
# shown. Data are n=1 of a mix of 2 donors.
# MRGPRX2 [2] = biological target: T1, MRGPRX2; details: cited from earlier work
# T1 sequence (Q96LB1 whole entry): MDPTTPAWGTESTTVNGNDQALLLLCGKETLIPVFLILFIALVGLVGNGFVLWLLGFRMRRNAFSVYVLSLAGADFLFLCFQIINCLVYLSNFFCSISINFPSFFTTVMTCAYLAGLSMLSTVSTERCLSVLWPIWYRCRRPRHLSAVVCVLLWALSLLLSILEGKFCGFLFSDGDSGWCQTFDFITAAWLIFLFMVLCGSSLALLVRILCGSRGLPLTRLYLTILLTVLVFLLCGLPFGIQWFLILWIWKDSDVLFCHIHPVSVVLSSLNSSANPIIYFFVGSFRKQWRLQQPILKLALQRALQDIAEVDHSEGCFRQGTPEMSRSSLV
compound,measurement,setting,value
CCCCC/C=C\C[C@@H](O)/C=C/C=C/C=C\[C@@H](O)CCCC(=O)O [LTB4],effect on MC migration,MC progenitors,"known to attract MC progenitors, recruiting them from the circulation, and lose its effect upon MC maturation"
CCCCC[C@H](O)/C=C/[C@H]1[C@H](O)CC(=O)[C@@H]1C/C=C\CCCC(=O)O [PGE2],effect on MC migration,MC progenitors,more prone to regulating cell movement within the tissue
CSCC[C@H](NC(=O)[C@H](CC(C)C)NC(=O)CNC(=O)[C@H](Cc1ccccc1)NC(=O)[C@H](Cc1ccccc1)NC(=O)[C@H](CCC(N)=O)NC(=O)[C@H](CCC(N)=O)NC(=O)[C@@H]1CCCN1C(=O)[C@H](CCCCN)NC(=O)[C@@H]1CCCN1C(=O)[C@@H](N)CCCN=C(N)N)C(N)=O [SP],bronchoconstriction in asthmatic subjects,asthmatic subjects,does not induce bronchoconstriction
C[C@@H](O[C@H]1OCCN(Cc2n[nH]c(=O)[nH]2)[C@H]1c1ccc(F)cc1)c1cc(C(F)(F)F)cc(C(F)(F)F)c1 [aprepitant],inhibition of SP-induced chemotaxis,neurokinin 1 receptor,did not
CGRP,"CD63 degranulation, neuropeptide",MRGPRX2 [1],minimal effect
LL-37,binding to MRGPRX2,MRGPRX2 [2],binds
PAMP-20,binding to MRGPRX2,MRGPRX2 [2],binds
cortistatin-14,binding to MRGPRX2,MRGPRX2 [2],binds
